From patent US9593305B2, “Differentiation of pluripotent stem cells” (Janssen Biotech, Inc., priority 2008, dated 2017)

The compounds below were run on H1 human embryonic stem cells (assay: Step-wise differentiation, RT-PCR of differentiation markers (Example 12, Table 13)). Conditions: GDF-8 200 ng/ml with Wnt3a or 2.5 μM compound in step 1, versus activin A/Wnt3a.
Type: cell-based
Procedure: Stock cultures of human embryonic stem cells (H1 human embryonic stem cell line) were maintained in an undifferentiated, pluripotent state on reduced growth factor […]™-coated dishes in MEF conditioned medium with passage on average every four days. Passage was performed by exposing cell cultures to a solution of 1 mg/ml dispase (Invitrogen; Cat #17105-041) for 5 to 7 minutes at 37° C. followed by rinsing the monolayer with MEF conditioned culture medium and gentle scraping to recover cell clusters. Clusters were centrifuged at low speed to collect a cell pellet and remove residual dispase. Cell clusters were split at a 1:3 or 1:4 ratio for routine maintenance culture or a 1:1 ratio for immediate assay. All human ES cell lines were maintained at passage numbers less than 50 and routinely evaluated for normal karyotype and absence of mycoplasma.
Cell clusters were evenly resuspended in MEF conditioned medium supplemented with 8 ng/ml bFGF and seeded onto reduced growth factor […]™-coated 24-well, black wall culture plates (Arctic White; Cat #AWLS-303012) in volumes of 0.5 ml/well. Daily feeding was conducted by aspirating spent culture medium from each well and replacing with an equal volume of fresh medium. Plates were maintained at 37° C., 5% CO2 throughout the duration of assay.
The assay was initiated by aspirating the culture medium from each well and adding back an aliquot (0.5 ml) of test medium. Test conditions for the first step of differentiation were conducted over a three-day period, feeding daily by aspirating and replacing the medium from each well with fresh test medium. On the first day of assay, 100 ng/ml activin A (PeproTech; Cat #120-14) or 200 ng/ml GDF-8 (R&D Systems, Cat #788-G8) was added to respective assay wells where each growth factor was diluted into RPMI-1640 medium (Invitrogen; Cat #22400) with 1% Albumin Bovine Fraction V, Fatty Acid Free (FAF BSA) (MP Biomedicals, Inc; Cat 152401), 1% Probumin (Millipore; Cat #81-068-3) and 20 ng/ml Wnt3a (R&D Systems; Cat #1324-WN/CF). […]

Compound	expression levels of markers associated with endodermal and endocrine differentiation (PCR)
O=C1CCN2CCN(CC2)Cc2cc(Cl)cc(c2)Nc2ncnc(n2)-c2cncc(c2)CCCN1 [Compound 34, 5-Chloro-1,8,10,12,16,22,26,32-octaazapentacyclo[24.2.2.1˜3.7˜0.1˜9,13˜0.1˜14.18˜]tritriaconta-3(33), 4,6,9(32), 10,12,14(31), 15,17-nonaen-23-one]	similar, or in some instances, improved expression levels
GDF-8: growth factor GDF-8, also known as myostatin, member of the TGF-β family	similar, or in some instances, improved expression levels
Cc1c[nH]c(-c2cnc(NCCNc3ccc(C#N)cn3)nc2-c2ccc(Cl)cc2Cl)n1 [Compound 56, 6-[(2-{[4-(2,4-Dichlorophenyl)-5-(4-methyl-1H-imidazol-2-yl)pyrimidin-2-yl]amino}ethyl)amino]pyridine-3-carbonitrile]	similar, or in some instances, improved expression levels
